We go through eleven molecules from patent US11274093B2, “Fused bicyclic benzoheteroaromatic compounds and methods of use thereof” (Araxes Pharma LLC, priority 2017, dated 2022).

Molecules are shown by their SMILES.

The target of this assay is T1, KRAS G12C 1-169, his-tagged protein, GDP-loaded (Homo sapiens, UniProt P01116, G12C).
T1 construct: KRAS G12C 1-169, his-tagged protein, GDP-loaded
The assay is described as follows: Biochemical assay: covalent binding to KRAS G12C measured by mass spectrometry. The settings on record: covalently bind to KRAS G12C, after a thirty minute incubation period. Here is the method: Test compounds were prepared as 10 mM stock solutions in DMSO (Fisher cat #BP-231-100). KRAS G12C 1-169, his-tagged protein, GDP-loaded was diluted to 0.5 μM in buffer (20 mM Hepes, 150 mM NaCl, 1 mM MgCl2). Compounds were tested for activity as follows:
Compounds were diluted to 50× final test concentration in DMSO in 96-well storage plates. Compound stock solutions were vortexed before use and observed carefully for any sign of precipitation. Dilutions were as follow: • For 100 μM final compound concentration, compounds were diluted to 5000 μM (5 μL 10 mM compound stock+5 μL DMSO and mixed well by pipetting. • For 30 μM final compound concentration, compounds were diluted to 1500 μM (3 μL 10 mM compound stock+17 μL DMSO) and mixed well by pipetting. • For 10 μM final compound concentration, compounds were diluted to 500 μM (2 μL 10 mM compound stock+38 μL DMSO) and mixed well by pipetting. 49 μL of the stock protein solution was added to each well of a 96-well PCR plate (Fisher cat #1423027). 1 μl of the diluted 50× compounds were added to appropriate wells in the PCR plate using 12-channel pipettor. Reactions were mixed carefully and thoroughly by pipetting up/down with a 200 μL multi-channel pipettor. The plate was sealed well with aluminum plate seal, and stored in drawer at room temperature for 10 minutes, 30 minutes, 2 hours or 24 hours. 5 μL of 2% formic acid (Fisher cat #A117) in de-ionized H2O was then added to each well followed by mixing with a pipette. The plate was then resealed with aluminum seal and stored on dry ice until analyzed as described below.
The above described assays were analyzed by mass spectrometry according to one of the following two procedures:
The MS instrument is set to positive polarity, 2 GHz resolution, and low mass (1700) mode and allowed to equilibrate for 30 minutes. The instrument is then calibrated, switched to acquisition mode and the appropriate method loaded.
After another 30 minute equilibration time, a blank batch (i.e., buffer) is run to ensure equipment is operating properly. The samples are thawed at 37° C. for 10 minutes, briefly centrifuged, and transfer to the bench top. Wells A1 and H12 are spiked with 1 μL 500 μM internal standard peptide, and the plates centrifuged at 2000×g for 5 minutes. The method is then run and masses of each individual well recorded.
The masses (for which integration data is desired) for each well are pasted into the platemap and exported from the analysis. Masses for the internal standards are exported as well. The data at 50 ppm is extracted for the +19 charge state, and identity of well A1 is assigned using the internal standard spike and integrated. Peak data is exported as a TOF list and the above steps are repeated individually, for the +20, 21, 22, 23, 24, and 25 charge states.
The masses and peak intensities of KRAS G12C protein species were measured using a Dionex RSLCnano system (Thermo Scientific) connected to a Q Exactive Plus mass spectrometer (Thermo Scientific).
[…] of sample was each loaded onto a Aeris™ […] WIDEPORE C4 200 Å, LC Column 50×2.1 mm column maintained at 40° C. at a flow rate of 600 μL/min with […] (0.1% formic acid in acetonitrile). The liquid chromatography conditions were 20% solvent B for 1 minute, 20% to 60% solvent B for 1.5 minutes, 60% to 90% solvent for 0.5 minute, 90% solvent B for 0.2 minute, 90% to 20% solvent B for 0.2 minute, and then equilibrated for 1.6 minute before the following sample injection. The flow rate was maintained at 600 μL/min throughout the sample analysis.
The mass spectrometer was operated in profile mode at a resolution of 17500, 5 microscans, using 50 msec max injection time and an AGC target of 1×10^6, and a full mass range from 800-1850 m/z was recorded. The HCD trapping gas was optimized for maximum sensitivity for intact proteins. […]
As to `C=CC(=O)N1CC(Nc2ncnc3c(-c4c(C)ccc5[nH]ncc45)cccc23)C1` [Compound 1, 1-(3-((8-(5-methyl-1H-indazol-4-yl)quinazolin-4-yl)amino)azetidin-1-yl)prop-2-en-1-one], the Binding % result is “+ (+ indicates binding activity up to 5%)”.
Under `C=CC(=O)N1CC(Nc2ncnc3c(-c4cc(O)cc5ccccc45)cccc23)C1` [Compound 2, 1-(3-((8-(3-hydroxynaphthalen-1-yl)quinazolin-4-yl)amino)azetidin-1-yl)prop-2-en-1-one] stands “++ (++ indicates binding activity of 5% or more)”; under `C=CC(=O)N1CC(Nc2cnnc3c(-c4cc(O)cc5ccccc45)cccc23)C1` [Compound 18, 1-(3-((8-(3-hydroxynaphthalen-1-yl)cinnolin-4-yl)amino)azetidin-1-yl)prop-2-en-1-one], “++ (++ indicates binding activity of 5% or more)”.
Turning to `C=CC(=O)N1CCN(c2cnnc3c(-c4c(C)ccc5[nH]ncc45)cccc23)CC1` [Compound 19, 1-(4-(8-(5-methyl-1H-indazol-4-yl)cinnolin-4-yl)piperazin-1-yl)prop-2-en-1-one], the Binding % entry was “+ (+ indicates binding activity up to 5%)”.
Take `C=CC(=O)N1CCN(c2cnnc3c(-c4cc(O)cc5ccccc45)cccc23)CC1` [Compound 20, 1-(4-(8-(3-hydroxynaphthalen-1-yl)cinnolin-4-yl)piperazin-1-yl)prop-2-en-1-one]: the Binding % result is reported as “++ (++ indicates binding activity of 5% or more)”.
Under `C=CC(=O)N1CCCC(Nc2cnnc3c(-c4c(C)ccc5[nH]ncc45)cccc23)C1` (centres unmarked) [Compound 21, 1-(3-((8-(5-methyl-1H-indazol-4-yl)cinnolin-4-yl)amino)piperidin-1-yl)prop-2-en-1-one] stands “+ (+ indicates binding activity up to 5%)”; under `C=CC(=O)N1CCC(Nc2cnnc3c(-c4cc(O)cc5ccccc45)cccc23)C1` (centres unmarked) [Compound 22], “+ (+ indicates binding activity up to 5%)”.
Under `C=CC(=O)N1CCC(Nc2cnnc3c(-c4c(C)ccc5[nH]ncc45)cccc23)C1` (centres unmarked) [Compound 23, 1-(3-((8-(5-methyl-1H-indazol-4-yl)cinnolin-4-yl)amino)pyrrolidin-1-yl)prop-2-en-1-one] stands “+ (+ indicates binding activity up to 5%)”; under `C=CC(=O)N1CC(Nc2cncc3c(-c4cc(O)cc5ccccc45)ccnc23)C1` [Compound 24, 1-(3-((4-(3-hydroxynaphthalen-1-yl)-1,6-naphthyridin-8-yl)amino)azetidin-1-yl)prop-2-en-1-one], “++ (++ indicates binding activity of 5% or more)”; under `C=CC(=O)N1CC(Nc2cncc3c(-c4cc(O)cc5ccccc45)cccc23)C1` [Compound 25, 1-(3-((8-(3-hydroxynaphthalen-1-yl)isoquinolin-4-yl)amino)azetidin-1-yl)prop-2-en-1-one], “++ (++ indicates binding activity of 5% or more)”.
Under `C=CC(=O)N1CC(Nc2cncc3c(-c4c(C)ccc5[nH]ncc45)cccc23)C1` [Compound 26, 1-(3-((8-(5-methyl-1H-indazol-4-yl)isoquinolin-4-yl)amino)azetidin-1-yl)prop-2-en-1-one] stands “++ (++ indicates binding activity of 5% or more)”.
